This note sets out measurements from patent US20090118372A1, “Inhibitors Of Biotin Protein Ligase” (Adelaide Research & Innovation Pty Ltd., priority 2004, published 2009).

The subject of series [1] is T1, hPC-108, biotin domain of human pyruvate carboxylase (C-terminal 108 amino acids), cleaved from GST.
T1 sequence: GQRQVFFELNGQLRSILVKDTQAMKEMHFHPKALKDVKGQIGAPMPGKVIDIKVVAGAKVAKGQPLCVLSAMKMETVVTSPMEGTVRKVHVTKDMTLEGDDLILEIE

Series [2] deals with C. albicans BPL (Candida albicans, UniProt A0A1D8PUA1). Put plainly: biochemical. The series is classed as biochemical.
Sequence of C. albicans BPL (A0A1D8PUA1 entry or part of it): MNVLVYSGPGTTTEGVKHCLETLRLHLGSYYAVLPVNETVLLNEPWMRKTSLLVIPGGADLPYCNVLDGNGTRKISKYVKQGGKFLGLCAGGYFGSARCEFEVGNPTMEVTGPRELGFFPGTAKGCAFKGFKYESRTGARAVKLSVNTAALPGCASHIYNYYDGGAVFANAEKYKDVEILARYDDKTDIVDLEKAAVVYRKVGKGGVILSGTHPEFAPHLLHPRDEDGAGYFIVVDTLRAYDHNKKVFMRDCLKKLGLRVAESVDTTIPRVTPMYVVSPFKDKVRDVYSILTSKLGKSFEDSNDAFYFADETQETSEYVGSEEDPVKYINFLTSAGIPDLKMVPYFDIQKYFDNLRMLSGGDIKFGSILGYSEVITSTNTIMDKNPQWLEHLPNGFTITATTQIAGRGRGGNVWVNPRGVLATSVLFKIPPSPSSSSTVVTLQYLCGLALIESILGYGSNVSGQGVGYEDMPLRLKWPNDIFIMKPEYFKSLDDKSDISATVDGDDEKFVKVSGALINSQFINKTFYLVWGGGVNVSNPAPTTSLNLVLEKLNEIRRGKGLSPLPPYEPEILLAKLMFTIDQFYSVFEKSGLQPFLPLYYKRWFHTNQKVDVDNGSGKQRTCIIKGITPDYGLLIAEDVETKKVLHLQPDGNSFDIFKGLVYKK
Protocol: One hundred ng of biotin domain was coated onto each well of Griener Lumitrac 600 White 96-well plates (Stennick Scientific) with >95% of the peptide binding. Coating was performed overnight at 4° C. in 100 uL of Tris Buffered saline (TBS, pH 7.5). The sample was removed and wells blocked in 150 ul of a 1% BSA solution in TBS for 1 hr at 37° C. The blocking buffer was removed and wells washed five times in TBS buffer containing 0.1% Tween-20. Into each well 85 ul of the BPL reaction mix was added. The reaction for both C. albicans and human BPL are performed in 50 mM Tris-HCl pH 8.0, 100 uM ATP, 5.5 mM MgCl2, 0.1 mg/ml BSA, 10 uM biotin, 0.1 uM dithiothreitol.
Ten ul of either buffer alone or buffer containing inhibitor was added to the reaction mix and pre-equilibrated at 37° C. for 5 minutes. BPL reactions are initiated by the addition of 5 ul enzyme to a final concentration of 3.4 nM (1-5 nM). The reaction is allowed to proceed at 37° C. for 15 minutes at which point it is terminated by the addition of 5 ul 0.5 M EDTA (final concentration 25 mM). The reaction mix was discarded and wells washed five times in TBS-TD (TBS, 0.1% Tween-20 and 100 uM diethylenetriaminepentaacetic acid (DPTA)). The quantitative analysis of biotinylated protein formed in the reaction and coupled onto the well surface was determined using time resolved fluorescence. Fifty ul of Europium labelled streptavidin (Perkin-Elmer) solution, diluted to 0.1 ug/ml in TBS-TD, was added to each well. The plates were incubated at 37° C. for 1 hr before being washed five times in TBS-TD then three times in water. Fifty ul of DELFIA Enhancement solution (Perkin Elmer) was added and incubated for ten minutes at room temperature before quantitation. Quantitation was performed using a FLUOstar Galaxy plate reader (BMG Labtechnologies).
Each compound in the screening library was dissolved in 100% DMSO, added to the reactions to a final concentration of 10 μM or 50 μM and their effect on BPL activity measured. […] The inhibitory activity of the compounds was determined relative to the negative control reactions containing only DMSO.
In series [3] the target is T2, Escherichia coli BPL (Escherichia coli, UniProt P06709).
T2 construct: the plasmid pHBA, which contains the entire coding region for E. coli BirA; made in house; host or cells: E. coli BL21(DE3), plasmid pHBA (pET-16b)
T2 sequence (P06709 whole entry): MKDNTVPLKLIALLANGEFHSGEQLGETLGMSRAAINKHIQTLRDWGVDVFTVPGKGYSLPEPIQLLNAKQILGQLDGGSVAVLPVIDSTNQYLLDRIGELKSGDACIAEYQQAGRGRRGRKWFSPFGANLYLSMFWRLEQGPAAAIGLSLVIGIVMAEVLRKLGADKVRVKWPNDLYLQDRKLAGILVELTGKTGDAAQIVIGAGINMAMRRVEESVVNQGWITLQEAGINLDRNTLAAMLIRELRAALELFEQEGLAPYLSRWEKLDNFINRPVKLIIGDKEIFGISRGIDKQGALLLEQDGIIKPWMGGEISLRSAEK
As to the kind of experiment: In vitro biotinylation assay of E. coli BPL. The class given is biochemical. The method, then: (§1) Purified hPC-108 was analysed in an in vitro biotinylation assay using recombinant human BPL as follows: BPL activity was assayed by measuring the incorporation of [^3H]biotin into biotin domain. The reactions contained 50 mM Tris-HCl, pH 8.0, 3 mM ATP, 5.5 mM MgCl2, 50 mM KCl, 5 uM biotin, 5 pmol [^3H]biotin (specific activity 35-44 Ci/mmol) 0.1 mM dithiothreitol, 0.1 mg/ml BSA and varying concentrations of hPC-108. The reaction was initiated by addition of purified […] BPL to a final concentration of 13 nM and incubated at 37° C. for up to 30 minutes when aliquots of the reaction were spotted onto biotin- and trichloroacetic acid-treated filters. After air-drying, the filters were washed twice in 10% ice cold trichloroacetic acid and once in ethanol, dried and the acid insoluble radioactivity measured. Values for Km and Vmax were determined by fitting a plot of substrate concentration against rate to the Michaelis-Menten equation using GraphPad Prism for MacIntosh (GraphPad Software Inc, San Diego, Calif.).
(§2) The activity of BPL from Escherichia coli, Staphylococcus aureus, Saccharomyces cerevisiae and Homo sapiens was measured using an in vitro biotinylation assay in the presence of increasing concentrations of Compounds 2 to 5.

Series [4] addresses T3, Saccharomyces cerevisiae BPL (Saccharomyces cerevisiae, UniProt P48445).
T3 sequence (P48445 1-690): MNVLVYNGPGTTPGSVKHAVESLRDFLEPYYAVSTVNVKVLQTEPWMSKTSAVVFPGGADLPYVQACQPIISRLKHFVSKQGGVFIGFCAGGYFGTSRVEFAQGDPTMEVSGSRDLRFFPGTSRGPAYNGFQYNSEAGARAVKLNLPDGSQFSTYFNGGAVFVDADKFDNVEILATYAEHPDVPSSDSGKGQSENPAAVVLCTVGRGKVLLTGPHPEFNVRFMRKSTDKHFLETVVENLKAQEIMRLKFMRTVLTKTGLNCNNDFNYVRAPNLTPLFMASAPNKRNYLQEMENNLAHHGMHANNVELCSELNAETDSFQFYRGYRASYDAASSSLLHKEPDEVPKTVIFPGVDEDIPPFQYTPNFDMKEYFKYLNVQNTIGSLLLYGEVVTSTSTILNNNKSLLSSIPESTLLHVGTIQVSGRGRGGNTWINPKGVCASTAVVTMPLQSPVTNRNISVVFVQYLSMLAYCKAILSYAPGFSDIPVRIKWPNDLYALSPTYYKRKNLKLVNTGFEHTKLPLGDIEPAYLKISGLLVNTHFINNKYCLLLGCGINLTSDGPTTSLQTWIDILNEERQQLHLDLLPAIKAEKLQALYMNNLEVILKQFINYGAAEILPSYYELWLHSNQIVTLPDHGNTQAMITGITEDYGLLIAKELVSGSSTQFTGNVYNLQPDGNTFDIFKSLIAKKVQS
Put plainly: In vitro biotinylation assay of S. cerevisiae BPL. The class given is biochemical. The protocol: (§3) One hundred ng of biotin domain was coated onto each well of Griener Lumitrac 600 White 96-well plates (Stennick Scientific) with >95% of the peptide binding. Coating was performed overnight at 4° C. in 100 uL of Tris Buffered saline (TBS, pH 7.5). The sample was removed and wells blocked in 150 ul of a 1% BSA solution in TBS for 1 hr at 37° C. The blocking buffer was removed and wells washed five times in TBS buffer containing 0.1% Tween-20. Into each well 85 ul of the BPL reaction mix was added. The reaction for both C. albicans and human BPL are performed in 50 mM Tris-HCl pH 8.0, 100 uM ATP, 5.5 mM MgCl2, 0.1 mg/ml BSA, 10 uM biotin, […].
Ten ul of either buffer alone or buffer containing inhibitor was added to the reaction mix and pre-equilibrated at 37° C. for 5 minutes. […] The quantitative analysis of biotinylated protein formed in the reaction and coupled onto the well surface was determined using time resolved fluorescence. […] Fifty ul of DELFIA Enhancement solution (Perkin Elmer) was added and incubated for ten minutes at room temperature before quantitation. Quantitation was performed using a FLUOstar Galaxy plate reader (BMG Labtechnologies).
as §2

The target of series [5] is T4, Staphylococcus aureus BPL (UniProt A0A3A5LBF0).
T4 sequence (A0A3A5LBF0 1-323): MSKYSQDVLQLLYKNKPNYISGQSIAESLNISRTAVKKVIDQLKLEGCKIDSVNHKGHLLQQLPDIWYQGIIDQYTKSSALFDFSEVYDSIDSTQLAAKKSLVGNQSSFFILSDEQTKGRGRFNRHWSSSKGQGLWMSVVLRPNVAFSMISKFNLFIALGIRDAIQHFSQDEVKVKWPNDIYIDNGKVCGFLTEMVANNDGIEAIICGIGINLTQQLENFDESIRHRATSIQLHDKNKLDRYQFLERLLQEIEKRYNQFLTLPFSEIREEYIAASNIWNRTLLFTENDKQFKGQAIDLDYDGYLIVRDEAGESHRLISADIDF
As to the kind of experiment: In vitro biotinylation assay of S. aureus BPL. The series is classed as biochemical. The protocol: as §1, §2

Series [6] concerns the target T5, human BPL (Homo sapiens, UniProt P50747).
T5 construct: Vector pARA(hBPL-His6) was produced by cloning the full-length gene into Nco1/Hind111 treated pARA13; initiator Met (NcoI site) before Ala80 (N); made in house; host or cells: E. coli BL21(DE3)pLys, pET-16b vector
T5 sequence (P50747 80-726 limits assumed): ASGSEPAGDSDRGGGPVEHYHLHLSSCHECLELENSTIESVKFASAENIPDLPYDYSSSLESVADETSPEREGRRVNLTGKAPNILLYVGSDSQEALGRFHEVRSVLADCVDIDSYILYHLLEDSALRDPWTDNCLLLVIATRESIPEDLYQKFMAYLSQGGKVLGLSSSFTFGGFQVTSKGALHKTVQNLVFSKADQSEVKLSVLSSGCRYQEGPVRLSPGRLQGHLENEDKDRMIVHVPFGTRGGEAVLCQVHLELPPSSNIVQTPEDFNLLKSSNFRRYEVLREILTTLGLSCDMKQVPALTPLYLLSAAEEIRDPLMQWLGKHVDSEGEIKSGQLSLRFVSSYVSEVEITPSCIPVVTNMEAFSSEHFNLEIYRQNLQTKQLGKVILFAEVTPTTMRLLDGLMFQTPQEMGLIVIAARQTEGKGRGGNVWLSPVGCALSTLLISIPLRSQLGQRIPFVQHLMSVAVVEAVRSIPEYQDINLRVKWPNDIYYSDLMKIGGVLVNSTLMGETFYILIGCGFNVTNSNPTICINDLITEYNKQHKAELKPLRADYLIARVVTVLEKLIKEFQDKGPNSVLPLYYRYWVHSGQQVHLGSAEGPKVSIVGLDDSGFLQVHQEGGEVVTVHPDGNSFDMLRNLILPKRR
As to the kind of experiment: In vitro biotinylation assay of human BPL (Example 9). The series is classed as biochemical. The method, then:
as §3
Ten ul of either buffer alone or buffer containing inhibitor was added to the reaction mix and pre-equilibrated at 37° C. for 5 minutes. […] The quantitative analysis of biotinylated protein formed in the reaction and coupled onto the well surface was determined using time resolved fluorescence. […] Fifty ul of DELFIA Enhancement solution (Perkin Elmer) was added and incubated for ten minutes at room temperature before quantitation. Quantitation was performed using a FLUOstar Galaxy plate reader (BMG Labtechnologies). […]
as §2

Series [7] concerns Staphylococcus aureus. Put plainly: Antibiotic activity against Staphylococcus aureus on solid media and in liquid culture. The series is classed as cell-based. The note with it: L-agar, filter disc soaked in 100 μM, overnight 37° C. The method, then:
The antibacterial properties of Compound 2 were assessed against Staphylococcus aureus grown on both solid media (A-C) and in liquid culture (D). Log phase culture was plated onto L-agar and filter discs soaked in A) DMSO (vehicle control), B) 100 μM ampicillin or C) 100 μM compound #2. A single filter was placed in the centre of a bacterial plate before being placed at 37° C. overnight. The clear zone surrounding the disc in B & C represents sensitivity of S. aureus to the treatment. D) This sensitivity was quantitated in liquid culture by seeding 10^4 cells in a 96 well plate followed by overnight growth at 37° C. The growth of the culture was measured by absorbance at 600 nm.

Series [8] has as its target T5, human BPL. Put plainly: Kinetic analysis of biotinylation of hPC-108, [3H]biotin incorporation assay. The series is classed as biochemical. The following applies: varying concentrations of hPC-108; read-out: KM of human BPL for the biotin domain. The protocol: as §1

Take “recombinant human biotin protein ligase [Met1-Ala80]hBPL-His6”: the “KM (in vitro [3H]biotin incorporation assay, Michaelis-Menten fit)” value in series [1] is 1.0 ± 0.2 µM.

With `O=P(O)(O)OP(=O)(O)O` [pyrophosphate], the “Inhibition of the Candida BPL reaction (in words)” value in series [2] is given as “potent inhibitors”. Moreover, the “Inhibition of the Candida BPL reaction by pyrophosphate” value in series [2] (in the range of 50 uM to 1 mM) was “strongly inhibited”.

As a reminder, the IC50 is the concentration that inhibits the measured activity by half. On to `C=CCC(Cc1cc(OC)cc(OC)c1)(C(=O)O)C(=O)O` [Compound 4, 2-allyl-2-(3,5-dimethoxybenzyl)malonic acid], for which the IC50 in series [3] is 0.9 nM; in series [4] it was greater than 50000 nM; in series [5], 2700 nM; in series [6] it was greater than 50000 nM.

In the case of `Nc1ncnc2c1ncn2C1OC(COP(=O)(O)OCCCCCC2SCC3NC(=O)NC32)C(O)C1O` (stereo not drawn) [BtnOH-AMP, biotinol-adenylate], the “Inhibition of the human BPL reaction (in words)” value in series [6] was “inhibitor”. Besides, the “Inhibition of the Candida BPL reaction (in words)” value in series [2] is recorded as “potent inhibitors”. Moreover, the IC50 in series [2] (concentration response curve, read-out: IC50, inhibition of Candida BPL activity) is 1000 ± 200 nM.

Take `CC1(C)S[C@@H]2[C@H](NC(=O)[C@H](N)c3ccccc3)C(=O)N2[C@H]1C(=O)O` [ampicillin]: in series [7], the “Sensitivity of S. aureus on solid media (filter disc)” value is on record as “clear zone”.

B1: hPC-108: polypeptide of the C-terminal 108 amino acids (biotin domain) of human pyruvate carboxylase, BPL substrate (protein)
chain: GQRQVFFELNGQLRSILVKDTQAMKEMHFHPKALKDVKGQIGAPMPGKVIDIKVVAGAKVAKGQPLCVLSAMKMETVVTSPMEGTVRKVHVTKDMTLEGDDLILEIE
For orientation: Km means the substrate concentration at which the rate is half of its maximum. For B1, the Km in series [8] is 1 ± 0.2 µM.
